Test results: patent US9073833B1, “Oxime-based compound, pharmaceutical composition containing the same and method for preparing the same” (Chang Gung University, priority 2014, dated 2015)

Assays:
[1] = system: acute lung injury induced by LPS; assay: LPS-induced acute lung injury: tissue pathological examination of lung; assay type: in vivo, mouse (C57BL/6); details: 100 mg/kg intraperitoneal; 6 hours after LPS; H&E, 400×
Procedure: The left lung tissue of the mice from each group was rinsed with PBS and was fixed using a fixating solution (10% paraformaldehyde prepared in PBS) for 24 hours, followed by subjecting to ethanol dehydration treatment. The dehydrated tissue was then embedded in paraffin and sliced, thereby obtaining a sample with 4 to 6 μm thickness. The paraffin was then removed from the sample. The tissue was then stained with hematoxylin and eosin, was observed using an optical microscope (IX81, Olympus) at 400× magnification, and an image thereof was captured using a digital camera (DP72, Olympus).

[2] = system: foot edema induced by human neutrophil elastase; assay: Foot edema induced by human neutrophil elastase in mice
[3] = system: acute lung injury induced by LPS; assay: LPS-induced acute lung injury: myeloperoxidase (MPO) activity in lung tissue; details: 100 mg/kg intraperitoneal, 60 minutes before LPS; 6 hours after LPS
[4] = target: human neutrophil elastase (Homo sapiens (Human), UniProt P08246); assay: Inhibition of human neutrophil elastase activity (MeO-Suc-Ala-Ala-Pro-Val-p-nitroanilide, OD405); assay type: biochemical; details: mean ± SEM (n = 3), 30° C., 30 minutes
human neutrophil elastase, sequence (P08246 30-267): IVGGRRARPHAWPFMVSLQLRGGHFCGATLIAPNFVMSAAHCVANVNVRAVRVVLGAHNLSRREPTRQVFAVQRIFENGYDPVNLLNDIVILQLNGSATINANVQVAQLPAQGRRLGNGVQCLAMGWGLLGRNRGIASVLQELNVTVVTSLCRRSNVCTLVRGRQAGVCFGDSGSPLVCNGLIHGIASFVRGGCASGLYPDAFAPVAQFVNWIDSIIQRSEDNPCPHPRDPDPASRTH

| IC50 [4] [µM] | Structure (SMILES) | lung histology (alveolar edema, interstitial lung edema, leukocyte infiltration) [1] | edema degree (change in foot thickness) vs pathological control group ([2]; 50 mg/kg and 100 mg/kg intraperitoneal, 60 minutes before elastase, 10th-240th minute) | reduction of edema degree compared with Sivelestat ([2]; 100 mg/kg intraperitoneal, Sivelestat 100 mg/kg) | MPO activity in lung tissue vs pathological control group [3] |
| --- | --- | --- | --- | --- | --- |
|  | C/C(=N\O)c1ccccc1NS(=O)(=O)c1ccc(OC(=O)C(C)(C)C)cc1 [Compound 1, (E)-4-(N-(2-(1(hydroxyimino)ethyl)phenyl)sulfamoyl)phenyl pivalate] | minor alveolar edema, interstitial lung edema, and leukocyte infiltration | relatively lower edema degree | superior effect in reduction of edema degree to Sivelestat | significantly reduced MPO activity |
| 159 ± 15.5 | C/C(=N\OCCCO)c1ccccc1NS(=O)(=O)c1ccc(OC(=O)C(C)(C)C)cc1 [Compound 7, (E)-4-(N-(2-(1-(3-hydroxypropoxyimino)ethyl)phenyl)sulfamoyl)phenyl pivalate] |  |  |  |  |
